# Assay results: PMC12723204, “Mitochondrial Dysfunction Induced by a Novel Salicylate‐Based 1,2,3‐Triazole Salt With Potent Antileishmanial Activity” (Chemical Biology & Drug Design, 2025)
# Entries after “also recorded” stand apart in the source; their conditions may differ.
# Experiments:
# [1] = test system: L. amazonensis promastigotes; test: Mitochondrial superoxide (MitoSOX Red); type: cell-based, Leishmania amazonensis; settings: for increase in mitochondrial superoxide: 6 h
# Procedure: (§1) To measure ROS and mitochondrial ROS (superoxide) levels, L. amazonensis promastigotes (5 × 10^6 cells) were exposed to compound 7 (1.25 and 2.50 μM) for 6 and 24 h, following the methodology described by da Trindade Granato et al. ([2018]). Before the incubation, cells were washed with PBS and stained with 1 mM H2DCFDA (Invitrogen, Waltham, MA, USA) to measure total ROS. Fluorescence was measured after a 30‐min incubation with the dye using a fluorimeter (FLx800, BioTek Instruments Inc., Winooski, VT, USA) at an excitation/emission wavelength of 485/528 nm. As a positive control, cells were treated with 62.5 μM H2O2. To quantify mitochondrial superoxide, the MitoSOX Red indicator (Invitrogen, Molecular Probes, Eugene, Oregon, USA) was employed. Leishmania amazonensis promastigotes were treated with compound 7 (1.25 and 2.50 μM) for 6 and 24 h at 25°C. Cells were labeled with MitoSOX Red indicator at 5 μM and incubated for 20 min. Promastigotes incubated with antimycin A (10 μM) were used as the positive control. Fluorescence intensity was evaluated in a spectrofluorometer (FLx800, BioTek Instruments Inc., Winooski, VT, USA) at 540/600 nm of excitation/emission, respectively.
# [2] = test system: L. amazonensis intracellular amastigotes; test: Activity against intracellular amastigote forms of L. amazonensis in peritoneal macrophages (Giemsa counting); type: cell-based, Leishmania amazonensis
# Procedure: Peritoneal macrophages were obtained from BALB/c mice previously inoculated with 3% thioglycollate medium (da Trindade Granato et al. [2018]). The macrophages (2 × 10^6 cells/mL) were then allowed to adhere in 24‐well culture plates for 16 h at 37°C in a 5% CO2 atmosphere. After rinsing with phosphate‐buffered saline (PBS), the adhered macrophages were infected with stationary‐phase promastigotes of L. amazonensis at a 10:1 parasite‐to‐macrophage ratio for 4 h at 33°C. After several washes to remove non‐adherent promastigotes, the cells were either left untreated (negative control) or treated with the compounds (3.125–100.000 μM). Following a 72 h treatment period, the infected macrophages were fixed in ethanol, stained with Giemsa, and 200 macrophages were counted to determine the number of intracellular amastigotes. The GraFit software was used to determine the IC50, which was the outcome of three separate trials conducted in duplicate.
# [3] = test system: L. amazonensis promastigotes; test: Activity against promastigotes of L. amazonensis (MTT); type: cell-based; settings: Leishmania amazonensis, 72 h, read-out: Promastigote IC50
# Procedure: Promastigotes of L. amazonensis (IFLA/BR/67/PH8) were cultivated in brain heart infusion ([…] José dos […], Brazil) supplemented with bovine hemin (Sigma-Aldrich, St. Louis, MO, USA), folic acid (Sigma-Aldrich, St. Louis, MO, USA), inactivated fetal bovine serum (Cultilab, São Paulo, Brazil), and penicillin/streptomycin solution (Sigma-Aldrich, St. Louis, MO, USA). The cells were kept at 25°C in a BOD incubator. […] Louis, MO, USA; Mosmann [1983]). The viability of parasites was measured using a spectrophotometer (Multiskan EX-Thermo Electron Corporation, Vantaa, Finland) at 570 nm. The values were expressed as an inhibitory concentration capable of inhibiting 50% (IC50) of cell growth by using GraFit 5 software (Erithacus Software Ltda). […] Paulo, SP, Brazil) were used as reference drugs. All assays were run in triplicate across three separate trials.
# [4] = test system: L. amazonensis promastigotes; test: Total ROS production (H2DCFDA); type: cell-based, Leishmania amazonensis
# Procedure: as §1
# [5] = test system: L. amazonensis promastigotes; test: Mitochondrial membrane potential (JC-1); type: cell-based, Leishmania amazonensis; settings: for mitochondrial membrane hyperpolarization: 24 h
# Procedure: To evaluate mitochondrial membrane potential (MMP), L. amazonensis promastigotes (5 × 10^6 cells) were exposed to compound 7 (1.25 μM and 2.50 μM) for 6 and 24 h. After incubation, the cells were washed with PBS and stained with 5.00 μM JC‐1 (Coimbra et al. [2019]). After a 40‐min incubation with JC‐1, the cells were washed with Hank's solution, and fluorescence was measured using a fluorimeter (FLx800, BioTek Instruments Inc., Winooski, VT, USA) at excitation/emission wavelengths of 485/528 nm and 540/600 nm to detect fluorescence from monomers and J‐aggregates, respectively. As a positive control, cells were treated with 10.00 μM FCCP (Sigma‐Aldrich, St. Louis, MO, USA). MMP was assessed by calculating the ratio of fluorescence emitted by J‐aggregates to that of monomers.
# [6] = test system: peritoneal murine macrophages; test: Cytotoxicity against mammalian cells (MTT); type: cell-based, BALB/c mice; settings: comparator from Meinel et al. [2020]
# Procedure: (§2) After being prepared as previously mentioned, murine peritoneal macrophages obtained from BALB/c mice were either left untreated (negative control) or treated with the compounds (3.125–100.000 μM). Using a spectrophotometer (Multiskan EX, Thermo Electron Corporation, Vantaa, Finland) set to 570 nm, cell viability was assessed after 72 h of treatment using the MTT method (Mosmann [1983]). A cytotoxic concentration for 50% of the cell population (CC50) was used to express the results. The reference medication was miltefosine (Cayman Chemical Company, Ann Arbor, MI, USA). The assays were performed in three independent experiments in duplicate. The selectivity index was calculated by […].
# [7] = Cytotoxicity against mammalian cells (MTT); type: cell-based, BALB/c mice; settings: BALB/c, mouse; peritoneal murine macrophages, 72 h, MTT
# Procedure: as §2
# [8] = test system: L. amazonensis promastigotes; test: Cell membrane integrity (propidium iodide); type: cell-based, Leishmania amazonensis; settings: 24 h, 1.25 and 2.50 μM
# Procedure: To evaluate cell membrane integrity, L. amazonensis promastigotes (5 × 10^6 cells) were treated with compound 7 (1.25 and 2.50 μM) for 24 h. After incubation, the cells were washed with PBS and stained with 0.20 μg/mL of propidium iodide (PI) (Sigma‐Aldrich, St. Louis, MO, USA) (da Trindade Granato et al. [2018]). Following a 15‐min incubation with PI, fluorescence was measured using a fluorimeter (FLx800) at an excitation/emission wavelength of 540/600 nm. Cells exposed to heat at 65°C for 10 min were used as a positive control.
# human erythrocytes = test: Cytotoxicity in human red blood cells (hemolytic assay); type: cell-based; settings: 24 h, 0.09–200.00 μM
# Procedure: (§3) Blood cells were centrifuged at 1500 rpm, the plasma and leukocytes were discarded, and the erythrocytes were washed in PBS. Then, the cells were diluted to a concentration of 1%, plated in 96‐well plates, and untreated or treated with the compound 7 at different concentrations (0.09–200.00 μM). The plate was incubated for 24 h at 37°C, and then centrifuged at 2000 rpm for 1 min. The supernatant was collected, and the absorbance (Abs) was determined in a spectrophotometer (Multiskan EX, Thermo Electron Corporation, Vantaa, Finland) at 540 nm. Untreated cells were considered the negative control. For the positive control, 0.2% saponin in deionized water was used.
# [9] = as above; type: cell-based; settings: human erythrocytes (1% suspension), 200.00 μM (maximum concentration tested)
# Procedure: as §3
compound,measurement,setting,value
"CCCCCCCCn1cc(COC(=O)c2ccccc2O)[n+](C)n1.[I-] [Compound 7, 1‐Octyl‐4‐(((2‐Hydroxybenzoyl)oxy)methyl)‐3‐Methyl‐1H‐1,2,3‐Triazol‐3‐Ium Iodide]",increase in mitochondrial superoxide,[1]; 2× IC50 value (2.50 μM),62.54%
same,increase in mitochondrial superoxide,[1]; IC50 value (1.25 μM),57.68%
same,mitochondrial superoxide levels (in words),"[1]; 24 h, 1.25 and 2.50 μM",no alteration
same,SI (Selectivity Index),[2]; CC50 of peritoneal murine macrophages/IC50 L. amazonensis amastigotes,17.81
same,IC50,"[2]; Leishmania amazonensis, Peritoneal macrophage, intracellular amastigotes in murine peritoneal macrophages, 72 h",6.23 ± 0.35 µM
same,IC50,[3],1.26 ± 0.27 µM
same,increase in total ROS,"[4]; 6 h, 2× IC50 value (2.50 μM)",56.54%
same,increase in total ROS,"[4]; 6 h, IC50 value (1.25 μM)",62.81%
same,increase in total ROS,"[4]; 24 h, 2× IC50 value (2.50 μM)",77.03%
same,increase in total ROS,"[4]; 24 h, IC50 value (1.25 μM)",79.87%
same,mitochondrial membrane potential (in words),"[5]; 6 h, 1.25 and 2.50 μM",no change; also recorded: without alterations
same,mitochondrial membrane hyperpolarization,[5]; 2× IC50 value (2.50 μM),29.66%
same,mitochondrial membrane hyperpolarization,[5]; IC50 value (1.25 μM),22.00%
same,fold lower cytotoxicity compared to the 4-hydroxy-substituted precursor previously described,[6],3.8 fold
same,CC50 at 72 h,[7],111 ± 34.5 µM
same,"membrane integrity, PI staining (in words)",[8],unaffected; also recorded: no significant alterations
same,hemolytic effect (in words),human erythrocytes,no hemolytic effect
same,"hemolysis at 24 h, 200 µM",[9],3.82%
